Experimental data published in US9637529B2, “Medicament for atrophy treatment or increasing cell growth” (SIMU TRADE CONSULTING GMBH & CO. LEASING KG, priority 2012, dated 2017).
Entries after “also recorded” stand apart in the source; their conditions may differ.

Columns and labels:
[1] = system: human epithelial cell line (A431); assay: H2O2-induced apoptosis, trypan-blue staining, A431; format: cell-based; details: 200 mM H2O2, SERF2 5 μg/ml, 6 hours, serum-free
Experimental: Experiments were performed in 6-well plates containing 5 ml cell culture medium (serum-free) per well and were seeded at a cell density of 1*10^6 cells/well and cultured overnight. On the next day 200 mM H2O2 or 200 mM H2O2 and SERF2 (5 μg/ml) was added to cultures. After 6 hours of incubation, the adherent cells were harvested, washed 3 times in PBS and dead cells were detected by trypan-blue staining using light microscopy. Shown is the percentage of dead cells.
Trypan Blue staining is one of the most commonly used methods to determine the cell viability using light microscopy. Trypan blue can only stain cells if their membrane is damaged.
The question was asked whether SERF2 has an effect on growth factor deprivation- or stress-induced apoptosis. The experimental protocol included addition of Hydrogen peroxide (H2O2), which is known to cause cellular stress and consequently apoptotic death in doses below 200 μM (Cox A., Carcinogenesis. 2007, Vol. 28, 10). Furthermore apoptosis was induced by deprivation of granulocyte macrophage colony-stimulating factor (GM-CSF) in cultures of TF-1 cells. These cells are dependent on the presence of a growth factor which is absolutely necessary for growth and differentiation of TF-1 cells.

[2] = system: rat cardiomyocytes (H9c2); assay: AlamarBlue proliferation assay, H9c2 cells; format: cell-based
Experimental: FIG. 3: Effect of SERF2 on Proliferation of H9c2 cells is dose-dependent. Proliferation assay was performed essentially as in FIG. 2. Incubation time was 24 hrs, added SERF2 concentrations ranged from 20 to 1.25 μg/ml.
FIG. 5: Kinetics of the Effect of SERF2 on Proliferation of rat cardiomyocytes (H9c2). Cells stimulated with SERF2 (green line) responded with proliferation and reached max. proliferation rate after 6 days. Proliferation assay was performed essentially as in FIG. 2. Incubation times were 24, 48, 72 and 144 hrs, the SERF2 concentration added was 5 μg/ml.
Rat derived embryonic cardiomyocytes H9c2 (ATTC CRL-1446) and embryonic skeletal muscle cells L6 (ATTC CRL-1458) were cultured in Dulbecco's Modified Eagle Medium high glucose (DMEM, Sigma Aldrich) containing 10% v/v fetal calf serum (FCS, PAA) and 1% v/v Penicillin/Streptamycin (Gibco). Cells were grown in 80 cm2 cell culture flasks (NUNC) using 15 ml growth medium. Both cell lines were incubated under humidified atmosphere at +37° C. and 5% v/v CO^2. Cells were splitted when a confluency of approximately 90% was reached. Usually a splitting ratio of 1:5 or 1:10 was applied. For this purpose, supernatant was removed and cells were washed using 10 ml Dulbecco's Phosphate Buffered Saline (DPBS, Gibco). Cells were harvested by addition of 3 ml Trypsin/EDTA (Gibco) followed by an incubation of 5 to 10 min at +37° C. Successful detachment of cells was checked under the microscope (IMT-2, Olympus) and 7 ml growth medium were added. Cell number and viability were determined by trypanblue exclusion performed by using an automated cell analyzer (CEDEX, Innovatis). For this, 950 μl DPBS and 50 μl cell-suspension were mixed and used for analysis.
Proliferation was measured using the AlamarBlue™ assay according to the manufacturer's protocol. Briefly, 1×10^4 cells were seeded per well containing 100 μl growth medium. […] Fluorescence (Ex. 570 nm, Em. 585 nm) was measured using a Varioskan Flash multi-plate reader (Thermo Scientific). Data were evaluated using Microsoft Excel and GraphPad Prism V4.

[3] = system: chorionallantoic membrane (CAM); assay: Hen's Egg Test - Chorionallantoic Membrane (HET-CAM) angiogenesis assay; format: in vivo, chicken; details: SERF2 3 μg/CAM, VEGF-A 0.5 μg/CAM; treatment on embryonic day 6 and 7; microscopic evaluation, manual count
Experimental: FIG. 12: Proangiogenic effect of SERF2 in CAM assays. To evaluate the pro-angiogenic properties of SERF2, 3 μg of A: PBS and C: SERF2 was applied per CAM. B: VEGF-A (0.5 μg/CAM) was used as positive control, PBS served as a negative control. […] Treatment was performed on embryonic day 6 and 7. Angiogenic responses were evaluated microscopically. Pictures shown were taken for documentation on day 6.
Fertilized specific-pathogen free eggs (White Leghorn) were obtained from BAXTER Biosciences (Vienna, Austria) on embryonic day 5 (E5). Eggs were disinfected on the surface using a towel soaked with Microzid (Schlilke, Austria). A tiny hole was drilled and 3 ml albumen were removed using a syringe equipped with a 18 G needle. Subsequently, the hole was covered with paraffin. To open the eggs, another hole was drilled on top. The egg shell was removed in this area using a pair of tweezers. […] Angiogenic potential of tested peptides was evaluated microscopically at the end of the experiment.
The HET-CAM assay enables the assessment of the angiogenic potential of substrates or cells. A suitable VEGF concentration was determined, which can be used as positive control. […] Angiogenic response was determined on Ell by light microscopy.
To evaluate the pro-angiogenic properties of SERF2, the protein was subjected to Het-CAM assay. […] Angiogenic responses were evaluated microscopically on E7 as well as on E8. […]

Substance: SERF2: Small EDRK-rich factor 2, mature protein of 59 amino acids (SEQ ID NO: 1) (MTRGNQRELARQKNMKKQSDSVKGKRRDDGLSAAARKQRDSEIMQQKQKKANEKKEEPK; homo sapiens)
- protection from H2O2-induced apoptosis (percentage of dead cells), A431 [1]: markedly reduced apoptosis; also recorded: protects a human epithelial cell line (A431) from H2O2-induced apoptosis
- proliferative effect on H9c2 cells ([2]; 24 h treatment, SERF2 20 to 1.25 μg/ml): proliferative effect in a dose-dependent manner
- SERF2 concentration at which proliferative effect peaks, H9c2 ([2]; AlamarBlue): 5 µg/mL
- time to max. proliferation rate, H9c2 ([2]; SERF2 5 μg/ml, incubation 24, 48, 72 and 144 hrs): 6 days
- angiogenic response (newly formed vessels) in CAM [3]: pro-angiogenic response; also recorded: New vessels were identified
